# Test results taken from US8877748B2, “Heterocyclic fused anthraquinone derivatives, manufacturing method and pharmaceutical composition using thereof” (National Defense Medical Center, priority 2012, dated 2014).
# Where “and” joins values, the source holds several entries; their conditions need not be identical. Equal entries are not always repeated. Where two headings read alike, the source gives them in different places.
# Legend:
# MDA-MB-231/ATCC = assay: NCI one-dose screening, breast cancer MDA-MB-231/ATCC; type: cell-based, human; settings: 10 μM
# T-47D = assay: NCI one-dose screening, breast cancer T-47D; type: cell-based, human; settings: 10 μM
# LOX IMVI = assay: NCI one-dose screening, melanoma LOX IMVI; type: cell-based, human; settings: 10 μM
# U251 = assay: NCI one-dose screening, CNS cancer U251; type: cell-based, human; settings: 10 μM
# OVCAR-3 = assay: NCI one-dose screening, ovarian cancer OVCAR-3; type: cell-based, human; settings: 10 μM
# NCI-H522 = assay: NCI one-dose screening, non-small cell lung cancer NCI-H522; type: cell-based, human; settings: 10 μM
# SR = assay: NCI one-dose screening, leukemia SR; type: cell-based, human; settings: 10 μM
# HOP-92 = assay: NCI one-dose screening, non-small cell lung cancer HOP-92; type: cell-based, human; settings: 10 μM
# DU145 = assay: NCI one-dose screening, prostate cancer DU145; type: cell-based, human; settings: 10 μM
# SK-OV-3 = assay: NCI one-dose screening, ovarian cancer SK-OV-3; type: cell-based, human; settings: 10 μM
# MOLT-4 = assay: NCI one-dose screening, leukemia MOLT-4; type: cell-based, human; settings: 10 μM
# COLO 205 = assay: NCI one-dose screening, colon cancer COLO 205; type: cell-based, human; settings: 10 μM
# SF-295 = assay: NCI one-dose screening, CNS cancer SF-295; type: cell-based, human; settings: 10 μM
# NCI-H322M = assay: NCI one-dose screening, non-small cell lung cancer NCI-H322M; type: cell-based, human; settings: 10 μM; Non-small cell lung cancer
# KM12 = assay: NCI one-dose screening, colon cancer KM12; type: cell-based, human; settings: 10 μM
# NCI-H460 = assay: NCI one-dose screening, non-small cell lung cancer NCI-H460; type: cell-based, human; settings: 10 μM
# OVCAR-8 = assay: NCI one-dose screening, ovarian cancer OVCAR-8; type: cell-based, human; settings: 10 μM
# HCT-116 = assay: NCI one-dose screening, colon cancer HCT-116; type: cell-based, human; settings: 10 μM
# PRMI-8226 cell line = assay: NCI one-dose screening, leukemia PRMI-8226; type: cell-based, human; settings: 10 μM
# M14 = assay: NCI one-dose screening, melanoma M14; type: cell-based, human; settings: 10 μM
# human tumor cell lines = assay: NCI one-dose screening, Mean / Delta / Range of growth percent over all tested cell lines; type: cell-based; settings: 10 μM
# [1] = system: PC-3 prostate cancer cell line; assay: SRB assay cell viability, PC-3 prostate cancer cell line; type: cell-based, human; settings: Homo sapiens
# SNB-75 = assay: NCI one-dose screening, CNS cancer SNB-75; type: cell-based, human; settings: 10 μM
# IGROV1 = assay: NCI one-dose screening, ovarian cancer IGROV1; type: cell-based, human; settings: 10 μM
# MDA-MB-468 = assay: NCI one-dose screening, breast cancer MDA-MB-468; type: cell-based, human; settings: 10 μM
# PC-3 = assay: NCI one-dose screening, prostate cancer PC-3; type: cell-based, human; settings: 10 μM
# MALME-3M = assay: NCI one-dose screening, melanoma MALME-3M; type: cell-based, human; settings: 10 μM
# HCC-2998 = assay: NCI one-dose screening, colon cancer HCC-2998; type: cell-based, human; settings: 10 μM
# TK-10 = assay: NCI one-dose screening, renal cancer TK-10; type: cell-based, human; settings: 10 μM
# SN12C = assay: NCI one-dose screening, renal cancer SN12C; type: cell-based, human; settings: 10 μM
# HS 578-T = assay: NCI one-dose screening, breast cancer HS 578-T; type: cell-based, human; settings: 10 μM; Breast cancer
# SF-539 = assay: NCI one-dose screening, CNS cancer SF-539; type: cell-based, human; settings: 10 μM
# SK-MEL-5 = assay: NCI one-dose screening, melanoma SK-MEL-5; type: cell-based, human; settings: 10 μM
# K562cell line = assay: NCI one-dose screening, leukemia K562; type: cell-based, human; settings: 10 μM
# SNB-19 = assay: NCI one-dose screening, CNS cancer SNB-19; type: cell-based, human; settings: 10 μM
# HOP-62 = assay: NCI one-dose screening, non-small cell lung cancer HOP-62; type: cell-based, human; settings: 10 μM
# SK-MEL-2 = assay: NCI one-dose screening, melanoma SK-MEL-2; type: cell-based, human; settings: 10 μM
# [2] = NCI one-dose screening, renal cancer A489; type: cell-based, human; settings: 10 μM
# BT-549 = assay: NCI one-dose screening, breast cancer BT-549; type: cell-based, human; settings: 10 μM
# OVCAR-4 = assay: NCI one-dose screening, ovarian cancer OVCAR-4; type: cell-based, human; settings: 10 μM
# HCT-15 = assay: NCI one-dose screening, colon cancer HCT-15; type: cell-based, human; settings: 10 μM
# UO-31 = assay: NCI one-dose screening, renal cancer UO-31; type: cell-based, human; settings: 10 μM
# CCRF-CEM = assay: NCI screening platform one-dose single concentration screening, leukemia CCRF-CEM; type: cell-based, human; settings: 10 μM
# HL-60, TB = assay: NCI one-dose screening, leukemia HL-60, TB; type: cell-based, human; settings: 10 μM
# UACC-257 = assay: NCI one-dose screening, melanoma UACC-257; type: cell-based, human; settings: 10 μM
# RXF, 393 = assay: NCI one-dose screening, renal cancer RXF, 393; type: cell-based, human; settings: 10 μM
# A549/ATCC = assay: NCI one-dose screening, non-small cell lung cancer A549/ATCC; type: cell-based, human; settings: 10 μM
# SF-268 = assay: NCI one-dose screening, CNS cancer SF-268; type: cell-based, human; settings: 10 μM
# CAKI-1 = assay: NCI one-dose screening, renal cancer CAKI-1; type: cell-based, human; settings: 10 μM
# UACC-62 = assay: NCI one-dose screening, melanoma UACC-62; type: cell-based, human; settings: 10 μM
# NCI-H226 = assay: NCI one-dose screening, non-small cell lung cancer NCI-H226; type: cell-based, human; settings: 10 μM
# MCF7 = assay: NCI one-dose screening, breast cancer MCF7; type: cell-based, human; settings: 10 μM
# SK-MEL-28 = assay: NCI one-dose screening, melanoma SK-MEL-28; type: cell-based, human; settings: 10 μM
# NCI-H23 = assay: NCI one-dose screening, non-small cell lung cancer NCI-H23; type: cell-based, human; settings: 10 μM
# 786-O = assay: NCI one-dose screening, renal cancer 786-O; type: cell-based, human; settings: 10 μM
compound,measurement,setting,value
"O=C1c2ccccc2C(=O)c2c1cc(Sc1ccccc1)c1nsnc21 [C19, 4-(phenylthio)anthra[2,1-c][1,2,5] thiadiazol-6,11-dione]",Growth Percent MDA-MB-231/ATCC,MDA-MB-231/ATCC,66.67%
same,Growth Percent T-47D,T-47D,93.21%
same,Growth Percent LOX IMVI,LOX IMVI,42%
same,Growth Percent U251,U251,88.75%
same,Growth Percent OVCAR-3,OVCAR-3,96.67%
same,Growth Percent NCI-H522,NCI-H522,100.56%
same,Growth Percent SR,SR,86.41%
same,Growth Percent HOP-92,HOP-92,110.22%
same,Growth Percent DU145,DU145,102.73%
same,Growth Percent SK-OV-3,SK-OV-3,105.6%
same,Growth Percent MOLT-4,MOLT-4,31.08%
same,Growth Percent COLO 205,COLO 205,117.53%
same,Growth Percent SF-295,SF-295,106.36%
same,Growth Percent NCI-H322M,NCI-H322M,79.21%
same,Growth Percent KM12,KM12,99.5%
same,Growth Percent NCI-H460,NCI-H460,100.74%
same,Growth Percent OVCAR-8,OVCAR-8,82.3%
same,Growth Percent HCT-116,HCT-116,90.08%
same,Growth Percent RPMI-8226,PRMI-8226 cell line,78.21%
same,Growth Percent M14,M14,106.41%
same,Growth Percent Delta,human tumor cell lines; delta over all cell lines,77.74%
same,Growth Percent Mean,human tumor cell lines; mean over all cell lines,93.48%
same,Growth Percent Range,human tumor cell lines; range over all cell lines,123.73%
same,IC50,"[1]; PC-3 prostate cancer cell line, Table II prints no unit, μM printed, read-out: SRB assay: 50% inhibition of cancer cell proliferation of sample concentration (IC50) of PC-3 prostate cancer cell line",28.6 µM
same,IC50,"[1]; PC-3 prostate cancer cells, read-out: IC50 in PC-3 prostate cancer cells (cell viability analysis)",> 15 µM
same,Growth Percent SNB-75,SNB-75,96.12%
same,Growth Percent IGROV1,IGROV1,84.4%
same,Growth Percent MDA-MB-468,MDA-MB-468,87.29%
same,Growth Percent PC-3,PC-3,87.32%
same,Growth Percent MALME-3M,MALME-3M,106.43%
same,Growth Percent HCC-2998,HCC-2998,110.88%
same,Growth Percent TK-10,TK-10,143.47%
same,Growth Percent SN12C,SN12C,96.58%
same,Growth Percent HS 578T,HS 578-T,95.89%
same,Growth Percent SF-539,SF-539,106.54%
same,Growth Percent SK-MEL-5,SK-MEL-5,85.68%
same,Growth Percent K562,K562cell line,52.03%
same,Growth Percent SNB-19,SNB-19,108.79%
same,Growth Percent HOP-62,HOP-62,97.77%
same,Growth Percent SK-MEL-2,SK-MEL-2,112.49%
same,Growth Percent A498,[2],95.01%
same,Growth Percent BT-549,BT-549,104.68%
same,Growth Percent OVCAR-4,OVCAR-4,57.83%
same,Growth Percent HCT-15,HCT-15,93.89%
same,Growth Percent UO-31,UO-31,80.12%
same,Growth Percent CCRF-CEM,CCRF-CEM,15.74%
same,Growth Percent HL-60(TB),"HL-60, TB",83.94%
same,Growth Percent UACC-257,UACC-257,92.75%
same,Growth Percent RXF 393,"RXF, 393",114.31%
same,Growth Percent A549/ATCC,A549/ATCC,105.68%
same,Growth Percent SF-268,SF-268,102.24%
same,Growth Percent CAKI-1,CAKI-1,89.04%
same,Growth Percent UACC-62,UACC-62,86.28%
same,Growth Percent NCI-H226,NCI-H226,117.67% and 94.91%
same,Growth Percent MCF7,MCF7,94.88%
same,Growth Percent SK-MEL-28,SK-MEL-28,127.12%
same,Growth Percent NCI-H23,NCI-H23,101.59%
same,Growth Percent 786-0,786-O,110.04%
